This passage reports EC50 results from PubChem BioAssay AID1743 (Vanderbilt High Throughput Screening Facility, 2009).

This assay addresses Muscarinic acetylcholine receptor M1 (Rattus norvegicus) (UniProt P08482). Description: M1 Y381A mutant agonism, calcium flux – cell-based, rat, CHO-K1, mechanism study for M1 allosteric modulator project (AID 1743). The settings on record: Fluo-4 calcium flux. A general note: Calcium flux is commonly read through the fluorescence of an indicator in the cells.

Muscarinic acetylcholine receptor M1 (Rattus norvegicus), sequence (P08482 whole entry Y381A, looked up): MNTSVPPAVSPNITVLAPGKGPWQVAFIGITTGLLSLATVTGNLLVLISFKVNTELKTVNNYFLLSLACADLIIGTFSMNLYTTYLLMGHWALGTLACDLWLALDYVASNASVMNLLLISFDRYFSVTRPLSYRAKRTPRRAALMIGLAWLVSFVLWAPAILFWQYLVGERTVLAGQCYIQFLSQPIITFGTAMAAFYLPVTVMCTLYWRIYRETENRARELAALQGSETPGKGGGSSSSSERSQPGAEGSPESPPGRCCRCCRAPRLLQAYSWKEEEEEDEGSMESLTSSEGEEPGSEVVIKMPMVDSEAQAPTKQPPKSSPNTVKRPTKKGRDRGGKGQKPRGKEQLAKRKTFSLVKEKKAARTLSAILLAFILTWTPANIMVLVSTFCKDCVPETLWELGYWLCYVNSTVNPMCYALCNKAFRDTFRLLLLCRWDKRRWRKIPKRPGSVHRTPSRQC

The EC50 is the concentration that produces a half-maximal response. With `CCOC(=O)N1CCC(NCCNC(=O)c2ccccc2)CC1`, the EC50 is 304 nM. The value for `CCOC(=O)N1CCC(NCCNC(=O)c2ccccc2C)CC1` was 379 nM. As for `CCOC(=O)N1CCC(NCCNC(=O)c2cccs2)CC1`, the EC50 is 1230 nM.
